How the values were obtained:
Rattus norvegicus = test: Ex vivo inhibition of DPP4 in Sprague-Dawley rat plasma at 1 mg/kg, po after 1 to 6 hrs using Gly-Pro-pNA substrate; assay type: functional
Dipeptidyl peptidase 4 = Dipeptidyl peptidase 4 (Homo sapiens, UniProt P27487)
Description: Inhibition of human DPP4 purified from Caco2 cells pre-incubated for 15 mins before Gly-Pro-pNA substrate addition and measured after 60 mins

Dipeptidyl peptidase 8 = Dipeptidyl peptidase 8 (Homo sapiens, UniProt Q6V1X1); test: Inhibition of FLAG-tagged human DPP8 expressed in 293-F cells pre-incubated for 20 mins before Gly-Pro-pNA substrate addition and measured after 90 mins; assay type: cell-based
Chain of Dipeptidyl peptidase 8 (Q6V1X1 whole entry): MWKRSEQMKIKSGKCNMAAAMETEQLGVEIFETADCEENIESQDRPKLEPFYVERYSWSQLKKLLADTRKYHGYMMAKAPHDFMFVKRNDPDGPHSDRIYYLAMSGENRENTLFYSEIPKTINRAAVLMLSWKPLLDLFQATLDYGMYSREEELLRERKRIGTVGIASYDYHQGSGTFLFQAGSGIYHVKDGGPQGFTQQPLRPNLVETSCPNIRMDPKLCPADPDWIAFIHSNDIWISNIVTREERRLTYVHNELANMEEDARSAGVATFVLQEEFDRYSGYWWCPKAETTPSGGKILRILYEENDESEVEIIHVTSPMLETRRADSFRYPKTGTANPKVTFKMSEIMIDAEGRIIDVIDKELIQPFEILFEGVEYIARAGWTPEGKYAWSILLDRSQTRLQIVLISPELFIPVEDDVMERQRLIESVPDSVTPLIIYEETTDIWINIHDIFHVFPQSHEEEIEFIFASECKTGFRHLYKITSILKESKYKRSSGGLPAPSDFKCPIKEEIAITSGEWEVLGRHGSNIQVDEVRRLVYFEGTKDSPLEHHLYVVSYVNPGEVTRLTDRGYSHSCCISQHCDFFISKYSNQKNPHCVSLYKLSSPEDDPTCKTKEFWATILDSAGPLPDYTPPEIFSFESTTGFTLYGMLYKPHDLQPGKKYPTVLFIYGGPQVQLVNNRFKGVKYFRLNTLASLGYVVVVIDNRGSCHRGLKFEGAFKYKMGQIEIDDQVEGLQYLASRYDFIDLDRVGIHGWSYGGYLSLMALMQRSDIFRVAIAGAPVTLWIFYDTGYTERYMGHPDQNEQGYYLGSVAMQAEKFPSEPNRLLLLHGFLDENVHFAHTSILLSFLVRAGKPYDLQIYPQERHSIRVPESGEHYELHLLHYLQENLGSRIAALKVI

Chain of Dipeptidyl peptidase 4 (P27487 whole entry): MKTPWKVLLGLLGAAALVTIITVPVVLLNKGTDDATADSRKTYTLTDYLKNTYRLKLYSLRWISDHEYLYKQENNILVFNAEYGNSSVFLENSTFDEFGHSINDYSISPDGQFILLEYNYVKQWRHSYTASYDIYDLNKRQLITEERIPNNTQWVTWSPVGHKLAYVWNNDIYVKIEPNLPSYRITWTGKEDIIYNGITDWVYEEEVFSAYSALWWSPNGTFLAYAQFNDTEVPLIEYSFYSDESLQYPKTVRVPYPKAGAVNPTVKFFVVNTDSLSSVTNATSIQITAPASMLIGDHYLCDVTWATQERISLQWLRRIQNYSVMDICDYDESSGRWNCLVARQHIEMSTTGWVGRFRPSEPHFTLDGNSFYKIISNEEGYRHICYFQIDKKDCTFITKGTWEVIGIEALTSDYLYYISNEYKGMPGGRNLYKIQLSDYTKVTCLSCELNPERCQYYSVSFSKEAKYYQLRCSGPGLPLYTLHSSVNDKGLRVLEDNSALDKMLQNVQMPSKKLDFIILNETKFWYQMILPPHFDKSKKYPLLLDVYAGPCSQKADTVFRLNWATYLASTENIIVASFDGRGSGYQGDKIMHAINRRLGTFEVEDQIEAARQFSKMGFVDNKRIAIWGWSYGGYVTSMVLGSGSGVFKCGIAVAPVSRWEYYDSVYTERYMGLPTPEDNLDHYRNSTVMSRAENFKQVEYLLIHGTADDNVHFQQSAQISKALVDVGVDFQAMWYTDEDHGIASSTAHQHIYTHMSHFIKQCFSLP

| Compound | inhibition in vivo at 1 mg/kg (Rattus norvegicus) [%] | IC50 (Dipeptidyl peptidase 4) [nM] | IC50 (Dipeptidyl peptidase 8) [µM] |
| --- | --- | --- | --- |
| Cc1ccc(-c2c(CN)c(CC(C)C)nc3ccc(-c4nc(C(=O)O)cs4)cc23)cc1 | > 50 | 0.38 |  |
| NCc1c(Cc2ccccc2)nc2ccc(OCC(N)=O)cc2c1-c1ccccc1 |  | 720 |  |
| CC(C)(C)Cc1nc2ccc(OCC(N)=O)cc2c(-c2ccccc2)c1CN |  | 250 |  |
| Cc1ccc(-c2c(CN)c(CC(C)C)nc(C)c2C(=O)OC[C@H]2CC[C@H](C(=O)O)CC2)cc1 |  | 80 |  |
| Cc1ccc(-c2c(COCc3ccc(C(=O)O)cc3)c(C)nc(CC(C)C)c2CN)cc1 |  | 7.2 |  |
| Cc1ccc(-c2c(CN)c(CC(C)C)nc(C)c2C(=O)OCCCC(=O)O)cc1 |  | 470 |  |
| CC(C)Cc1nc2ccc(C(N)=O)cc2c(-c2ccccc2)c1CN |  | 170 |  |
| Cc1ccc(-c2c(CCc3nc(C(N)=O)cs3)c(C)nc(CC(C)C)c2CN)cc1 |  | 8.5 |  |
| CC(C)Cn1c(CN)c(-c2ccccc2)c2cc(C(N)=O)cnc2c1=O |  | 470 |  |
| Cc1ccc(-c2c(CN)c(CC(C)C)nc(C)c2C(=O)OCc2cccc(C(=O)O)c2)cc1 |  | 87 |  |
| Cc1ccc(-c2c(CN)c(CC(C)C)nc(C)c2C(=O)OCc2ccc(C(=O)O)cc2)cc1 |  | 17 | > 100 |
| Cc1ccc(-c2c(CN)c(CC(C)C)nc3ccc(-c4ccc(C(=O)O)o4)cc23)cc1 |  | 28 |  |
| Cc1ccc(-c2c(/C=C/c3nc(C(=O)O)cs3)c(C)nc(CC(C)C)c2CN)cc1 |  | 5.5 |  |
| Cc1ccc(-c2c(CN)c(CC(C)C)nc(C)c2C(=O)OCc2ccccc2C(=O)O)cc1 |  | 29 |  |
| CC(C)Cn1c(CN)c(-c2ccccc2)c2cc(Br)cnc2c1=O |  | 1200 |  |
| Cc1ccc(-c2c(CN)c(CC(C)C)nc3ccc(OCCC(=O)O)cc23)cc1 |  | 29 |  |
| Cc1ccc(-c2c(CCc3nc(C(=O)O)cs3)c(C)nc(CC(C)C)c2CN)cc1 |  | 2.6 |  |
| Cc1ccc(-c2c(CN)c(CC(C)C)nc3ccc(OCCCCCC(=O)O)cc23)cc1 |  | 6.8 |  |
| CCCCCc1nc2ccc(OCC(N)=O)cc2c(-c2ccccc2)c1CN |  | 540 |  |
| CC(=O)c1csc(-c2cnc(CC(C)C)c(CN)c2-c2ccc(C)cc2)n1 |  | 8.7 |  |
| Cc1ccc(-c2c(CN)c(CC(C)C)nc3ccc(OCC(=O)O)cc23)cc1 |  | 140 |  |
| Cc1ccc(-c2c(CN)c(CC(C)C)nc3ccc(OCCCCC(N)=O)cc23)cc1 |  | 13 |  |
| Cc1ccc(-c2c(CN)n(CC(C)C)c(=O)c3ccc(OCC(N)=O)cc23)cc1 |  | 220 |  |
| Cc1ccc(-c2c(CN)c(CC(C)C)nc3ccc(OCCCC(=O)O)cc23)cc1 |  | 17 |  |
| Cc1ccc(-c2c(CN)c(CC(C)C)nc3ccc(OCCCCC(=O)O)cc23)cc1 |  | 4.6 |  |
| CC(C)Cc1nc2ccc(Br)cc2c(-c2ccccc2)c1CN |  | 630 |  |
| CCCCc1nc2ccc(OCC(N)=O)cc2c(-c2ccccc2)c1CN |  | 620 |  |
| Cc1ccc(-c2c(-c3nc(C(N)=O)cs3)cnc(CC(C)C)c2CN)cc1 |  | 2.1 |  |
| CCCc1nc2ccc(OCC(N)=O)cc2c(-c2ccccc2)c1CN |  | 510 |  |
| CC(C)Cn1c(CN)c(-c2ccccc2)c2cc(Br)ccc2c1=O |  | 1200 |  |

Source: ChEMBL document CHEMBL4033726, “Design of potent dipeptidyl peptidase IV (DPP-4) inhibitors by employing a strategy to form a salt bridge with Lys554” (Bioorg Med Chem Lett, 2017)
